This note sets out measurements from patent publication US9486534B2, “Niacin conjugated fatty acid mixtures and their uses” (Catabasis Pharmaceuticals, Inc., priority 2009, dated 2016).

Assay [1] has as its system ApoA1 (apolipoprotein A1). The assay can be described thus: Effect on SREBP-1c target genes in HepG2 cells, real time PCR: ApoA1. To be noted: HepG2 cells stimulated with oleate, 50 μM, 6 hours, normalized to 18S; FIG. 2. The class given is cell-based. On the procedure:
(§1) HepG2 cells (ATCC) were seeded at 20,000 cells per well in 96 well plates. After adhering overnight, growth media (1.0% FBS in DMEM) was removed and cells were serum starved for 24 hours in DMEM containing 1% fatty acid free bovine serum albumin (BSA, Sigma). […] Cells were incubated for 6 hours and then washed with PBS. RNA was reverse-transcribed using the cells to cDNA reagents according to standard protocols (outlined in Applied Biosystem StepOne Real-time PCR protocols). Real time PCR of transcripts was performed with Taqman assays for the three specific genes FASN (fatty acid synthase), SCD (steroyl CoA desaturase) and ApoA1 (apolipoprotein A1). In all three cases, 18S-VIC® was used as a normalization control.

The subject of assay [2] is FASN (fatty acid synthase). The experiment in a line: Effect on SREBP-1c target genes in HepG2 cells, real time PCR: FASN. To be noted: HepG2 cells stimulated with oleate, 50 μM, 6 hours, normalized to 18S; FIG. 2. The class given is cell-based. On the procedure:
as §1

The test system of assay [3] is ApoB secretion in HepG2 cells. As to conditions: 3 concentrations (50, 100 and 200 μM), compared to niacin at 5 mM, FIG. 1.
Description: HepG2 cells (ATCC) are seeded at 10,000 cells per well in 96 well plates. After adhering overnight, growth media (10% FBS in DMEM) is removed and cells are serum starved for 24 hours in DMEM containing 0.1% fatty acid free bovine serum albumin (BSA, Sigma). Cells are then treated with a compound. Niacin at 5 mM is used as a positive control. All treatments are performed in triplicate. Simultaneous with compound treatment, ApoB secretion is stimulated with addition of 0.1 oleate complexed to fatty acid free BSA in a 5:1 molar ratio. Incubation with a compound and oleate is conducted for 24 hours. Media supernatants are removed and ApoB concentrations are measured using ELISA kits (Mabtech AB). Percent inhibition of ApoB secretion is determined by normalizing data to vehicle treated wells. For a given compound, an IC50 (concentration at which 50% of ApoB secretion is inhibited) can also be determined by using a 4 parameter-fit inhibition curve model (Graph Pad Prism®). In each experiment, cell viability is determined using the ATPlite 1-Step kit (Perkin Elmer), such that compound effects due to cytotoxicity can be monitored.
The level of ApoB secretion was compared to that of niacin, evaluated at 5 mM concentration.
Assay [4] has as its system SCD (steroyl CoA desaturase). The experiment in a line: Effect on SREBP-1c target genes in HepG2 cells, real time PCR: SCD. As to conditions: HepG2 cells stimulated with oleate, 50 μM, 6 hours, normalized to 18S; FIG. 2. The class given is cell-based. As to the method: as §1

In the case of `CC/C=C\C/C=C\C/C=C\C/C=C\C/C=C\C/C=C\CCC(=O)NCCNC(=O)c1cccnc1` [I-7, N-(2-(4Z,7Z,10Z,13Z,16Z,19Z)-docosa-4,7,10,13,16,19-hexaenamidoethyl)nicotinamide], the ApoA1 gene expression result in assay [1] was “increase”. Besides, the FASN gene expression result in assay [2] is recorded as “statistically significant inhibition”. In assay [3], the “inhibition of ApoB secretion” value was “significant inhibition”. Also, in assay [4], the SCD gene expression result was “statistically significant inhibition”.
As for `CC/C=C\C/C=C\C/C=C\C/C=C\C/C=C\CCCC(=O)NCCNC(=O)c1cccnc1` [I-8, N-(2-(5Z,8Z,11Z,14Z,17Z)-eicosa-5,8,11,14,17-pentaenamidoethyl)nicotinamide], the ApoA1 gene expression result in assay [1] is “increase”. In addition, in assay [2], the FASN gene expression entry is “statistically significant inhibition”. Also, the SCD gene expression entry in assay [4] is listed as “statistically significant inhibition”.
